Entries after “also recorded” stand apart in the source; their conditions may differ.
System: conjunctival cells
Assay: Conjunctival and corneal epithelial cell identification (CK8, CK19, CK12 immunofluorescence), stem cell deficiency model
Assay type: in vivo, mice
Details: Fosaprepitant 1 mg/mL (FOSA 1)
Text: Eight-week-old male mice C57BL6/N (Charles River, Calco, Italy) (WT mice, n=18) and Tac1-deficient B6.Cg-Tac1tm1Bbm/J (Jackson Laboratories, Bar Harbor, Me., USA) (TAC1-KO mice, n=18) were used in all experiments. TAC1-KO mice are homozygous null for the Tac1 gene. […] The corneal thickness and transparency as well as the corneal nerve length are similar to C57BL/6 mice [Barbariga M, Rabiolo A, Fonteyne P, Bignami F, Rama P, Ferrari G. The effect of aging on nerve morphology and substance P expression in mouse and human corneas. Investig Ophthalmol Vis Sci 2018; 59:5329-35. https://doi.org/10.1167/iovs.18-24707.]. Each animal was anesthetized with an intraperitoneal injection of tribromoethanol (250 mg/kg) and a topical anesthetic was applied to their ocular surface prior to the surgical procedure. Total disepithelization was performed based on the model previously described [Amirjamshidi H, Milani B Y, Sagha H M, Movahedan A, Shafiq M A, Lavker R M, et al. Limbal fibroblast conditioned media: A non-invasive treatment for limbal stem cell deficiency. Mol Vis 2011; 17:658], using a blunt spatula to scrap the entire corneal epithelium, including the limbus. Then, fluorescein staining was used to confirm complete removal of the corneal epithelium under the blue light of a slit-lamp microscope. After wounding, eyes were treated with ophthalmic moxifloxacin 1 time/day for 1 week to […]. Fourteen days after disepithelization mice were euthanized using carbon dioxide inhalation and subsequent cervical dislocation. Corneas were collected for immunostaining and western blot analysis. […]
The presence of conjunctival epithelial cells was evaluated by immunofluorescence. […] A negative control using only the secondary antibody was used to establish a fluorescence threshold. Then, the fluorescent intensity was quantified in terms of the percentage of positive area (% area) in the epithelium.

**Q.** `C[C@@H](O[C@H]1OCCN(Cc2nc(=O)n(P(=O)(O)O)[nH]2)[C@H]1c1ccc(F)cc1)c1cc(C(F)(F)F)cc(C(F)(F)F)c1` [Fosaprepitant, [3-{[(2R,3S)-2-[(1R)-1-[3,5-bis(trifluoromethyl)phenyl]ethoxy]-3-(4-fluorophenyl)morpholin-4-yl]methyl}-5-oxo-2H-1,2,4-triazol-1-yl]phosphonic acid] was tested. Which “CK12 expression in the corneal epithelium compared to WT” value (p<0.001) did it give?
**A.** increase

**Q.** What about the “CK8 conjunctival cells infiltrating the cornea compared to WT” value (p<0.01) of the same molecule?
**A.** Reduced number; also recorded: reduction

**Q.** What about the “CK19 conjunctival cells compared to WT” value (p<0.05) of the same molecule?
**A.** significant decrease; also recorded: reduction

Reference: patent publication US20230134843A1, “TREATMENT OF STEM CELL DEFICIENCY” (OSPEDALE SAN RAFFAELE S.R.L., priority 2020, published 2023)
